Experimental data as given in patent US12397067B2, “Sulfur- or heavy atom-containing nanoparticles, methods of making same, and uses thereof” (Cornell University, priority 2017, dated 2025).

Experiments:
[1] = tested on: BxPC3 pancreatic cancer cells; test: Cell toxicity study, Presto Blue % viability; type: cell-based; details: 14 mM (10% of typical imaging concentration), 16 hours
Description: Cell toxicity studies. BxPC3 pancreatic cancer cells were maintained in RPMI 1640 supplemented with 10% FBS at 37° C. with 5% CO2. To measure effects of C′ dots or βME on cells, cells at ˜70% confluence were washed with PBS, exposed to trypsin, resuspended, and dispensed into 96-well tissue culture plates (20,000 cells per well). Cells were allowed to settle overnight, forming a monolayer ˜70-80% confluent. The medium was removed from each well, and replaced with medium supplemented with varying amounts of either 60% srC′ dots or βME, or with DMSO (carrier agent) alone as a control, as well as 1× Pen-Strep antibiotic. Cells were then incubated for 6 days (srC′ dots) or 16 hours ((ME). Following incubation, medium was removed, cells washed with fresh medium and then incubated for one hour with fresh medium and Presto Blue per the manufacturer's recommendations. The absorbance of the Presto Blue was determined at 570 nm (background 600 nm) using a Tecan Safire microplate reader. Absorption was compared to that of a blank (medium plus Presto Blue in unused wells) to determine % viability of remaining cells, with the DMSO control lane defined as 100% viability, and the empty wells defined as 0% viability. All experiments were performed in triplicate.

[2] = Singlet oxygen quantum yield determination with DPBF sensor, relative to methylene blue; details: FIG. 15b inset, 635 nm exposure
Description: Determination of singlet oxygen quantum yields, ΦΔ. Measurements were carried out in ethanol with DPBF as a singlet oxygen detector molecule. The DPBF band at 410 nm and λmax of each dye were absorption matched across a particle series. For measurements of effective ΦΔ samples were concentration matched. The spectra were exposed and measured in a 100 μL quartz cuvette (Starna). Samples were evenly exposed to a 635 nm solid-state laser at 3 mW/cm^2 and 1 cm spot size. Measurements were started immediately after DPBF addition. The decrease of the 410 nm DPBF band was measured at various exposure times and corrected against a baseline. ΦΔ for each sample was calculated by comparing to MB (ΦΔ=0.520 in ethanol) as a standard (see example calculations).
Example calculation to determine singlet oxygen quantum yield, ΦΔ. ΦΔ(sample) is determined relative to a standard with known ΦΔ(standard) using equation (5):
[formula] Here, we used methylene blue (MB) as a standard with known ΦΔ(MB)=0.520. With the slopes, m, from the linear fits through the values of the 410 nm DPBF absorption band at different exposure times, ΦΔ(sample) can be calculated. With the values from FIG. 15b inset m(ATTO647N 7.5% iC′ dots)=0.00314 s^−1 and m(MB)=0.02506 s^−1, Φ^Δ (ATT0647N 7.5% iC′ dots)=0.520([…])=0.065.

[3] = in ethanol; cited from earlier work

Compound	%-cell viability [1]	slope m of linear fit of ln relative DPBF absorption at 410 nm vs exposure time [2] [s^−1]	singlet oxygen quantum yield, ΦΔ (known value of standard) [3]
OCCS [βME, β-mercaptoethanol]	substantial cell death		
CN(C)c1ccc2nc3ccc(=[N+](C)C)cc-3sc2c1 [MB, methylene blue]		0.02506	0.520
